{"source": "patent US4405354A", "about": "“Elimination of odors from waste material” (priority 1980, dated 1983)", "origin": "cited, not measured here", "note": "Where two headings read alike, the source gives them in different places."}
{"smiles": "N", "note": "[aqueous ammonia]", "values": [{"measurement": "Kb", "setting": "0 °C", "value": "1.374 × 10^-5"}, {"measurement": "Kb", "setting": "5 °C", "value": "1.479 × 10^-5"}, {"measurement": "Kb", "setting": "10 °C", "value": "1.570 × 10^-5"}, {"measurement": "Kb", "setting": "15 °C", "value": "1.652 × 10^-5"}, {"measurement": "Kb", "setting": "20 °C", "value": "1.710 × 10^-5"}, {"measurement": "Kb", "setting": "25 °C", "value": "1.774 × 10^-5"}, {"measurement": "Kb", "setting": "30 °C", "value": "1.820 × 10^-5"}, {"measurement": "Kb", "setting": "35 °C", "value": "1.849 × 10^-5"}, {"measurement": "Kb", "setting": "40 °C", "value": "1.862 × 10^-5"}, {"measurement": "Kb", "setting": "45 °C", "value": "1.879 × 10^-5"}, {"measurement": "Kb", "setting": "50 °C", "value": "1.892 × 10^-5"}]}
